# Measurements from article PMC9516332 (Frontiers in Oncology, 2022).
# Read-outs that look alike come from different tables or passages of the source.
# What was measured:
# Assay in all cases: Kinase panel profiling at 1 µmol/L (MSA or IMAP), percentage inhibition
# Format in all cases: biochemical
# [1] = biological target: panel of 255 wild-type kinases (Homo sapiens, UniProt Q8IU85); conditions: CaMK1δ kinase assay; 1 µmol/L single concentration; read-out: %-inhibition CaMK1δ
# [2] = biological target: panel of 255 wild-type kinases (Homo sapiens, UniProt Q05397); conditions: read-out: %-inhibition at 1 µmol/L, FAK
# [3] = biological target: panel of 255 wild-type kinases (Homo sapiens, UniProt P45983); conditions: kinase JNK1; 1 µmol/L single concentration; read-out: %-inhibition at 1 µmol/L, JNK1
# [4] = biological target: panel of 255 wild-type kinases (Homo sapiens, UniProt P16234); conditions: kinase PDGFRα; 1 µmol/L single concentration; read-out: %-inhibition at 1 µmol/L, PDGFRα
# [5] = biological target: panel of 255 wild-type kinases (Homo sapiens, UniProt O75582); conditions: MSK1; 1 µmol/L single concentration; read-out: %-inhibition, MSK1
# [6] = biological target: panel of 255 wild-type kinases (Homo sapiens, UniProt P10721); conditions: read-out: %-inhibition at 1 µmol/L, KIT
# [7] = biological target: panel of 255 wild-type kinases (Homo sapiens, UniProt Q96SB4); conditions: kinase SRPK1; 1 µmol/L single concentration; read-out: %-inhibition at 1 µmol/L, SRPK1
# [8] = biological target: T1, panel of 255 wild-type kinases (Homo sapiens, UniProt Q06418); conditions: kinase TYRO3; 1 µmol/L single concentration; read-out: %-inhibition at 1 µmol/L, TYRO3
# T1 sequence (Q06418 41-890): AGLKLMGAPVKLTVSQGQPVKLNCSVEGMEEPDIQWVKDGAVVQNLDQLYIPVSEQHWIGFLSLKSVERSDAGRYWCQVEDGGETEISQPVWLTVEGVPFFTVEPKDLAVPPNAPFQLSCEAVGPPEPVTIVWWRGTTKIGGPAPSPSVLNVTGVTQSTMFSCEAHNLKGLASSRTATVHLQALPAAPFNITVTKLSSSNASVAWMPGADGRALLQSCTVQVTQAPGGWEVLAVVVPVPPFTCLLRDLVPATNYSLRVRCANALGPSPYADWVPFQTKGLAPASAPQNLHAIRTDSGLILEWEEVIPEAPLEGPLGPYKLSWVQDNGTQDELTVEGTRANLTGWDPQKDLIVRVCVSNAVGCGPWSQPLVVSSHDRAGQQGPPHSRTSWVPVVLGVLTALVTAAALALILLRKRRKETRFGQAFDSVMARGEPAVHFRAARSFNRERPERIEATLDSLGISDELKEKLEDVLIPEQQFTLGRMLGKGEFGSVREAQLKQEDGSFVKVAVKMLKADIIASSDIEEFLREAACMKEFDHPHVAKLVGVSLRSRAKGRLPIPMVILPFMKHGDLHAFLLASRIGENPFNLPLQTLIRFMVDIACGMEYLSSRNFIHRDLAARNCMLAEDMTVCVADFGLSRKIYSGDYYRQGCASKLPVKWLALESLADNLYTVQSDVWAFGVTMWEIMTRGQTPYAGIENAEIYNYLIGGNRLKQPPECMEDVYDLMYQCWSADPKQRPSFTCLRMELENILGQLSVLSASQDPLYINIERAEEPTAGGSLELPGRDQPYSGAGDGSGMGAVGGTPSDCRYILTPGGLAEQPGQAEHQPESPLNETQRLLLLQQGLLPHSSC
# [9] = biological target: panel of 255 wild-type kinases (Homo sapiens, UniProt Q15208); conditions: NDR1; 1 µmol/L single concentration; read-out: %-inhibition, NDR1
# [10] = biological target: T2, panel of 255 wild-type kinases (Homo sapiens, UniProt O94806); conditions: kinase PKD3; 1 µmol/L single concentration; read-out: %-inhibition at 1 µmol/L, PKD3
# T2 sequence (O94806 1-890): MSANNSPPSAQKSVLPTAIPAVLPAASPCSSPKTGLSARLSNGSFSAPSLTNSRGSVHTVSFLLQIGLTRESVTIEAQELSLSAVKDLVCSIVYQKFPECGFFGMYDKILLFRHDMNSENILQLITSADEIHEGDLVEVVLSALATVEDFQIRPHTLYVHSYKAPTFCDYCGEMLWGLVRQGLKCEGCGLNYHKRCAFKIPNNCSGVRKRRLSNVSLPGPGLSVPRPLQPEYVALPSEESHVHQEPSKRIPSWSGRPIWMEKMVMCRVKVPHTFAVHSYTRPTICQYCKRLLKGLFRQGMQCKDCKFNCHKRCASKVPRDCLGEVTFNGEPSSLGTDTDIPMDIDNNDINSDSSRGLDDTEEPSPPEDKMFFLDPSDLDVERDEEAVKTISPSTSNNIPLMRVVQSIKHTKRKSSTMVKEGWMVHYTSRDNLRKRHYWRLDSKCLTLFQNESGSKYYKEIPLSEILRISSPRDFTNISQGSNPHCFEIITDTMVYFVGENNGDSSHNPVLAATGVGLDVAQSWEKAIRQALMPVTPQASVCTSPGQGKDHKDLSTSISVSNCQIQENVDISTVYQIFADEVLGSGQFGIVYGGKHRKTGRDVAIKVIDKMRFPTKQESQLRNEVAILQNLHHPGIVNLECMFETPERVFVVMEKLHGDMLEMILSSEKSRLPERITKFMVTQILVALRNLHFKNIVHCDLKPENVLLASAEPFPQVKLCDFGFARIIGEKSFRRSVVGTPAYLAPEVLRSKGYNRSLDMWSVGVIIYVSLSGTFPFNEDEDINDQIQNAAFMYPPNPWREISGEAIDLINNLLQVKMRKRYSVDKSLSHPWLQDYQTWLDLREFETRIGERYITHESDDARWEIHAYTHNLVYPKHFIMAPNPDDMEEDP
# [11] = biological target: panel of 255 wild-type kinases (Homo sapiens, UniProt Q16288); conditions: kinase TRKC; 1 µmol/L single concentration; read-out: %-inhibition at 1 µmol/L, TRKC
# [12] = biological target: panel of 255 wild-type kinases (Homo sapiens, UniProt P50750); conditions: CDK9/CycT1 kinase assay; 1 µmol/L single concentration; read-out: %-inhibition CDK9/CycT1
# [13] = biological target: panel of 255 wild-type kinases (Homo sapiens, UniProt Q9UQM7); conditions: CaMK2α kinase assay; 1 µmol/L single concentration; read-out: %-inhibition CaMK2α
# [14] = kinase FAK, 1 µmol/L single concentration
# [15] = kinase KIT, 1 µmol/L single concentration
Compound,inhibition at 1 µM [1] [%],"inhibition at 1 µM [2, 14] [%]",inhibition at 1 µM [3] [%],inhibition at 1 µM [4] [%],inhibition at 1 µM [5] [%],"inhibition at 1 µM [6, 15] [%]",inhibition at 1 µM [7] [%],inhibition at 1 µM [8] [%],inhibition at 1 µM [9] [%],inhibition at 1 µM [10] [%],inhibition at 1 µM [11] [%],inhibition at 1 µM [12] [%],inhibition at 1 µM [13] [%],inhibition at 1 µM [2] [%],inhibition at 1 µM [6] [%]
COC(=O)N[C@@H](C)CNc1nccc(-c2cn(C(C)C)nc2-c2cc(Cl)cc(NS(C)(=O)=O)c2F)n1 [encorafenib],-7,-3,6,4,11,-1.43,-5,8,1.12,5,-0.54,-1.11,-2.55,–,–
CCc1nc(C(N)=O)c(Nc2ccc(N3CCC(N4CCN(C)CC4)CC3)c(OC)c2)nc1NC1CCOCC1 [gilteritinib],39,–,29,95,25,71,-8,93,68,53,100,32,36,81,–
O=C(Nc1cnn2ccc(N3CCC[C@@H]3c3cc(F)ccc3F)nc12)N1CC[C@H](O)C1 [larotrectinib],3.44,4,-3.55,2.45,-0.0628,-5,-12,5.58,-2.75,8,101,-0.399,2.74,–,–
CCN1C(=O)N(c2c(F)c(OC)cc(OC)c2F)Cc2cnc3[nH]c(CN4CCOCC4)cc3c21 [pemigatinib],17,5.32,-4.3,69,3.7,–,-12,4,-4.31,14,-0.168,7,5,–,23
FC(F)(F)c1ccc(CNc2ccc(Cc3c[nH]c4ncc(Cl)cc34)cn2)cn1 [pexidartinib],4,30,-1.87,83,10,87,-20,10,13,-12,81,7,-4,–,–
CO[C@]1(C(=O)N[C@@H](C)c2ccc(-n3cc(F)cn3)nc2)CC[C@H](c2nc(C)cc(Nc3cc(C)[nH]n3)n2)CC1 [pralsetinib],-7.54,14,-5,99,10,83,-4,97,7.54,3,98,6,-1.59,–,–
COc1ccc(CN2C3CC2CN(c2ccc(-c4cc(OCC(C)(C)O)cn5ncc(C#N)c45)cn2)C3)cn1 [selpercatinib],9,10,-5.39,96,24,54,-9,99,-1.18,12,10,2.54,1.43,–,–
Cn1cnc2c(F)c(Nc3ccc(Br)cc3Cl)c(C(=O)NOCCO)cc21 [selumetinib],-3.34,-1.9,-4.74,25,3,-2.4,6,11,0.227,0.359,10,-2.15,-1.34,–,–
Cc1cc(Nc2ncnc3ccc(NC4=NC(C)(C)CO4)cc23)ccc1Oc1ccn2ncnc2c1 [tucatinib],-3.73,-1.17,-3.72,30,2.56,-1.27,-3,6,-0.331,39,2.53,1.53,-3,–,–
C=CC(=O)N1CCC([C@@H]2CCNc3c(C(N)=O)c(-c4ccc(Oc5ccccc5)cc4)nn32)CC1 [zanubrutinib],-1.26,13,-3.49,11,0.565,-4.47,-6,5.5,-1.86,13,-3.55,-1.15,2,–,–
